We go through one compound from patent US12667582B2, “Composition containing 2′-FL for ameliorating, preventing or treating diseases caused by reduction of dopamine” (priority 2022, dated 2026).

For data set [1], the system named is dopaminergic neuron culture from ventral mesencephalon tissue. Put plainly: 6-OHDA-mediated dopaminergic degeneration in primary ventral mesencephalon neuron culture (tyrosine hydroxylase immunocytochemistry). It is filed as cell-based, Sprague-Dawley rats. To be noted: 6-OHDA 100 μM alone, 48 hours, FIG. 2. The protocol:
Dopaminergic neuron culture was prepared from ventral mesencephalon tissue of E14-E15 embryos obtained from pregnant Sprague-Dawley rats. Specifically, the dissected ventral brain tissue was pooled and agitated for 15 minutes at 37° C. to separate the cells in pre-warmed trypsin EDTA (025%) and then the cells were washed with DMEM (Dulbecco's modified Eagle medium)/F12 culture medium. After washing, essential growth factors were added thereto, followed by culturing. 50% of the culture medium was replaced with fresh culture medium on the 3rd and 5th days of culture and the result was allowed to stand. From the 7th day of culture, antioxidant factors were excluded.
In addition, on the 10th day of culture, the neurotoxic substances 6-OHDA and 6-OHDA+2′-FL were added to the cells. After 48 hours, the cells were immobilized using 4% PFA (paraformaldehyde; Sigma-Aldrich) (FIG. 1). FIG. 1 illustrates the timeline of an in vitro experiment.
The viability rate of dopamine cells was determined from the immobilized cells using immunocytochemistry using tyrosine hydroxylase. Six samples were used for each group. The composition of each group is shown in Table 1 below and the number of cells was 1×10^6 which was constant for each group.

The subject of data set [2] is TH (+) cells in the substantia nigra. Put plainly: Tyrosine hydroxylase (TH) immunohistochemistry of dopaminergic neurons in substantia nigra. In kind it is in vivo, mouse. The following applies: 6-OHDA HBr injected into left striatum; top of FIG. 6. The protocol:
The mouse was anesthetized with chloral hydrate (400 mg/kg, ip) and fixed in a stereotaxic frame. 6-OHDA HBr (276 μg/μl×5 μl) was injected through a Hamilton microsyringe into two left striatum sites (1 mm AP, […] relative to bregma and […] and 1 mm AP, […] relative to bregma and […]) for 4 minutes (Day 0). Then, the mouse recovered from anesthesia was maintained at body temperature in a 37° C. incubator for 2 hours.
2′-FL (500 μM×20 μl) and saline (control; 20 μl) were injected into the nose from days 0 to 28. To determine whether or not Parkinson's disease was induced and to observe behavioral changes, methamphetamine was administered to […] and behavioral changes were observed on days 7, 21, and 28, respectively (FIG. 3). FIG. 3 illustrates the timeline of an in vivo experiment.
After the rotation test, the animals were slaughtered and brain tissue was removed therefrom (Veh, n=5; 2′-FL, n=4). The distribution of dopaminergic neurons was measured by immunohistochemistry using tyrosine hydroxylase (TH).
Specifically, the entire brain was sectioned to a thickness of 25 μm using a cryosection machine. […] The brain tissue was bound with a secondary antibody (concentration 1:500) and then was attached to a glass slide and expression was observed using a fluorescence microscope.

Take `NCCc1cc(O)c(O)cc1O` [6-OHDA]: the “decrease in dopamine cells compared to the normal cell group” value in data set [1] is reported as “caused a severe decrease in dopamine cells”. For the same compound, the “number of TH (+) cells in the substantia nigra after the toxin” value in data set [2] is “significantly reduced”.
